Patent publication US20150283127A1, “SAQUINAVIR-NO FOR IMMUNOMODULATION” (ONCONOX APS, priority 2012, published 2015)

Columns and labels:
[1] = system: S6 phosphorylation (S6 kinase activity); assay: S6 phosphorylation in murine CD4+ cells (immunoblot); assay type: cell-based, mouse; details: anti-CD3 and anti-CD28, 24 hours
Experimental: Whole-cell lysates were prepared in a solution containing 62.5 mM Tris-HCl (pH 6.8, 2% w/v sodium dodecyl sulfate (SDS), 10% glycerol, 50 mM dithiothreitol (DTT), 0.01% w/v bromophenol blue, 1 mM phenylmethanesulphonyl fluoride or phenylmethylsulphonyl fluoride (PMSF), 1 μg/ml aprotinine, 2 mM EDTA and samples containing 20 μg of proteins (measured by Lowry protein assay) were electrophoresed on a 12% SDS-polyacrylamide gel. The samples were electro-transferred to polyvinylidene difluoride membranes at 5 mA/cm2, using semi-dry blotting system (Fastblot B43, Biorad, Muenchen, Germany). The blots were blocked with 5% w/v nonfat dry milk in PBS 0.1% Tween-20 and probed with specific antibodies to S6 and phosphorylated-S6 (Ser240/244) at 1:500 dilution (both from Cell Signaling Technology, Boston, Mass.), followed by incubation with secondary antibody at 1:10000 dilution (ECL donkey anti-rabbit horseradish peroxidase (HRP)-linked, GE Healthcare, Buckinghamshire, England, UK). […]
In an attempt to determine intracellular signaling that might be responsible for the observed influence of Saq-NO on the cytokines generation, level of S6 phosphorylation as the measure of S6 kinase activity was detected by immunoblot. CD4+ cells were stimulated with anti-CD3 and anti-CD28 in the presence of Saq-NO or Saq for 24 hours and cell lysates were subsequently obtained and analyzed.

murine SPC = assay: Cytokine generation (ELISA) in ConA-stimulated murine SPC; assay type: cell-based, mouse; details: for Effects on cytokines at low concentrations: unfractionated spleen cells and/or purified murine CD4 T cells, concentrations of 2.5 and 5 mM
Text: Experimental animals (C57BL/6 mice, BALB/c mice and Dark Agouti rats) were obtained from the Animal House Facility of the Institute for Biological Research “Sinisa Stanković”, Belgrade, Serbia. Spleen cells (SPC) were isolated from murine spleens and lymph node cells (LNC) were obtained from rat cervical lymph nodes of untreated animals. Draining lymph node cells (DLNC) were obtained from popliteal lymph nodes 8-10 days after immunization of rats with myelin basic protein (guinea pig MBP, kind gift from professor Alexander Fluegel, University of Goettingen, Germany) and complete Freund's adjuvant (CFA, Difco, Detroit, Mich.). The organs were mechanically disrupted, passed through 40-μm nylon mesh filter and the resulting suspension was collected by centrifugation. Red blood cells from single cell suspensions obtained from spleens were lysed using RBC Lysis Buffer (eBioscience, San Diego, Calif.). CD4+ cells were purified from SPC using biotin conjugated antibody specific for CD4 (eBioscience) and IMag SAv particles plus (BD Biosciences, San Diego, Calif.). Obtained purity of CD4 population was more than 97% as determined by flow cytometry. SPC and LNC were seeded at 5×10^6/ml/well, DLNC at 2.5×10^6/ml/well and CD4+ cells at 1×10^6/ml/well of 24-well plates. Cells infiltrating spinal cords (SC) were obtained from SC of rats immunized with MBP+CFA at the time when rats suffered from severe clinical signs of experimental autoimmune encephalomyelitis (EAE). Rats were perfused with sterile PBS, SC were homogenized, adjusted to 30% Percoll (Sigma-Aldrich) and overlaid on 70% Percoll gradient. Following centrifugation at 870 g for 50 min the SC cells (SCC) were recovered from the […] Percoll interface and washed in RPMI-1640 medium. SCC were seeded at 0.5×106/200 μl/well of 96-well plates. SPC and LNC were stimulated with 2.5 μg/ml concanavalin A (ConA, Sigma-Aldrich), DLNC with MBP (10 ng/ml), CD4+ cells with anti-CD3 and anti-CD28 antibody (1 μg/ml each, both from eBioscience) and SCC were left untreated.
Cytokine concentration in cell culture supernatants was determined by sandwich ELISA using MaxiSorp plates (Nunc, Rochild, Denmark) and anti-cytokine paired antibodies according to the manufacturer's instructions. Samples were analyzed in duplicate for murine/rat IL-17, murine IL-10, murine TNF, murine IL-4 (eBioscience), murine IFN-γ, rat IFN-γ, rat IL-4 (R&D, Minneapolis, Minn.), rat IL-10 and rat TNF (BD Biosciences). The results were calculated using standard curves made on the basis of known concentrations of the appropriate recombinant cytokines.
In order to investigate the potential of Saq-NO to modulate cytokine production in immune cells, rat LNC were stimulated with ConA in the presence of various concentrations of Saq-NO for 24 hours and the levels of IFN-g, IL-4, IL-17, IL-10 and TNF were determined in cell-free culture supernatants. […] Effects of Saq-NO on the cytokine generation were examined in murine SPC, as well. Here, Saq-NO was applied in parallel with Saq and their influence on the cytokine generation and cell viability was compared. Further, two strains of mice were used, i.e. BALB/c and C57BL/6 mice which are prototypical Th2 and Th1 mice, respectively (Lohoff et al., 1998). […] Moreover, the influence of Saq-NO on the cytokines was evident with concentrations of the agent that had no effect on SPC viability (FIG. 2).

PLP-induced EAE = PLP-induced EAE in SJL mice; assay type: in vivo
Text: Seven to 8 weeks-old male C57Bl6 mice and 6 to 7 weeks-old female SJL mice (Harlan Laboratories srl, San Pietro al Natisone, Udine, Italy) were used in the experiments. They were kept under standard laboratory conditions (non specific pathogen free) with free access to food (Harlan Global Diet 2018) and water and were allowed to adapt at least one week to their environment before commencing the study.
PLP (139-151) was synthesized by Genemed synthesis (San Francisco Calif.). EAE was induced as described by J. St. Louis et al. (4). The mice were immunized with 75 μg PLP emulsified in CFA with 6 mg/ml Mycobacterium tuberculosis H37RA (Difco, Detroit, Mich., USA) to make a 1:1 emulsion. Each mouse received subcutaneous injections of 200 μl emulsion divided among four sites draining into the axillary and inguinal lymph nodes. Pertussis toxin (Calbiochem, Nottingham, UK) was used as a co-adjuvant and was administered i.p. at the dose of […] on day 0 and 2 post immunization. The mice were observed every day by measuring their body weights and clinical signs of EAE until 30 days after immunization. These clinical grading were carried out by an observer unaware of the treatment: 0=no sign of disease; 0.5=partial tail paralysis; 1=tail paralysis; 1.5=tail paralysis+partial unilateral hindlimb paralysis; 2=tail paralysis+hindlimb weakness or partial hindlimb paralysis; 2.5=tail paralysis+partial hindlimb paralysis (lowered pelvi); 3=tail paralysis+complete hindlimb paralysis; 3.5=tail paralysis+complete hindlimb paralysis+incontinence; 4=tail paralysis+hindlimb paralysis+weakness or partial paralysis of forelimbs; 5=moribund or dead.
Four groups of 7/8 mice were treated under a late prophylactic regime from day 7 to day 30 as follow:
Group 1: Saquinavir 10 mg/Kg (i.p. once daily)
Group 2: Saq-NO 10 mg/Kg (s.c. once daily)
Group 3: Saq-NO 20 mg/Kg (i.p. once daily)
Group 4: DMSO/H2O (vehicle) (i.p. once daily)

[2] = late prophylactic, 10 mg/Kg once daily

| SMILES | S6 phosphorylation [1] | Production of IFN-g, IL-4, IL-17, TNF (murine SPC; murine SPC) | Production of IL-10 (murine SPC; murine SPC) | Effect on the release of IFN-g, IL-4, IL-17, IL-10 and TNF, compared with Saq (murine SPC; murine SPC of BALB/c and C57BL/6 mice, ConA) | Effects on cytokines at low concentrations (murine SPC) | Cumulative score and duration of the disease compared to vehicle treated mice (PLP-induced EAE; [2]) | Clinical course of the disease (PLP-induced EAE; late prophylactic, 10 mg/Kg once daily, day 7 to 30) | Cum score and duration compared to vehicle-treated mice (PLP-induced EAE; late prophylactic, high dose 20 mg/Kg i.p. once daily) | Disease after interruption of the treatment (PLP-induced EAE; observed for further 20 days) |
| --- | --- | --- | --- | --- | --- | --- | --- | --- | --- |
| CC(C)(C)NC(=O)C1C[C@@H]2CCCC[C@@H]2CN1CC(O[N+](=O)[O-])[C@H](Cc1ccccc1)NC(=O)C(CC(N)=O)NC(=O)c1ccc2ccccc2n1 (stereo partly drawn) [Saq-NO, nitric ester of Saquinavir] | diminished | inhibited | stimulated | more profound effect | already observable | significantly lower | ameliorated | lower but not significant | most evidently |
| CC(C)(C)NC(=O)[C@@H]1C[C@@H]2CCCC[C@@H]2CN1C[C@@H](O)[C@H](Cc1ccccc1)NC(=O)[C@H](CC(N)=O)NC(=O)c1ccc2ccccc2n1 [Saq, (2S)—N-[(2S,3R)-4-[(3S)-3-(tert-butylcarbamoyl)-decahydroisoquinolin-2-iy]-3-hydroxy-1-phenylbutan-2-il]-2-(quinolin-2-ylformamido)butanediamide, reference compound] | much weaker |  |  |  | No effects | lower but not significant |  |  |  |
